Measurements published in ChEMBL document CHEMBL1201862, “PubChem BioAssay data set” (2004).
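Tested at 5 concentrations; 48 h exposure; 96-well plates; endpoints linearly interpolated, else capped at highest concentration. The concentration for 50% growth inhibition is given as GI50.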 Activity calls are given as the source filed them. No stated cut-off is given here; in the data, active = GI50 up to about 1.1 µM and inactive = higher.

Columns and labels:
Assay in all cases: inhibition of tumour cell growth, NCI panel, 48 h
SNB-75 = tested on: SNB-75
BT-549 = tested on: BT-549
SK-MEL-28 = tested on: SK-MEL-28
T47D = tested on: T47D
UO-31 = tested on: UO-31
LOX IMVI = tested on: LOX IMVI
786-0 = tested on: 786-0
U-251 = tested on: U-251
NCI-H226 = tested on: NCI-H226
K562 = tested on: K562
SF-539 = tested on: SF-539
MCF7 = tested on: MCF7
MOLT-4 = tested on: MOLT-4
SK-MEL-2 = tested on: SK-MEL-2
M14 = tested on: M14
OVCAR-8 = tested on: OVCAR-8
A549 = tested on: A549
DU-145 = tested on: DU-145
NCI/ADR-RES = tested on: NCI/ADR-RES
HCC 2998 = tested on: HCC 2998

Measured: GI50

CC12CC(=O)C3C(CCC4=CC(=O)CCC43C)C1CC=C2CC(=O)O (stereo not drawn)
inactive: SNB-75 > 100 µM | BT-549 > 100 µM | SK-MEL-28 > 100 µM | T47D > 100 µM | UO-31 > 100 µM | LOX IMVI > 100 µM | 786-0 > 100 µM | U-251 > 100 µM | NCI-H226 > 100 µM | K562 > 100 µM | SF-539 > 100 µM | MCF7 > 100 µM | MOLT-4 > 100 µM | SK-MEL-2 > 100 µM | M14 > 100 µM | OVCAR-8 > 100 µM | A549 > 100 µM | DU-145 > 100 µM | NCI/ADR-RES > 100 µM

O=[N+]([O-])c1ccc(C2c3c(O)nc(S)nc3Oc3nc(S)nc(O)c32)cc1
inactive: BT-549 > 100 µM | SK-MEL-28 > 100 µM | T47D > 100 µM | UO-31 > 100 µM | LOX IMVI > 100 µM | 786-0 > 100 µM | U-251 > 100 µM | NCI-H226 > 100 µM | K562 > 100 µM | MCF7 > 100 µM | MOLT-4 > 100 µM | SK-MEL-2 > 100 µM | M14 > 100 µM | OVCAR-8 > 100 µM | A549 > 100 µM | DU-145 > 100 µM | NCI/ADR-RES > 100 µM

O=[N+]([O-])c1ccc2c(c1)C1=C(CO2)Cc2ccccc2O1
inactive: HCC 2998 19.7 µM | SNB-75 > 100 µM | BT-549 28.8 µM | T47D 10.9 µM | UO-31 13.7 µM | LOX IMVI 14.8 µM | 786-0 17.4 µM | U-251 17.6 µM | NCI-H226 26.2 µM | K562 51.4 µM | SF-539 23.9 µM | MOLT-4 > 10 µM | SK-MEL-2 37.9 µM | M14 20.6 µM | OVCAR-8 33.5 µM | A549 42.4 µM | DU-145 33.9 µM | NCI/ADR-RES 30.3 µM

O=C1N/C(=N/N=C/c2ccccc2)N/C1=C\c1c[nH]c2ccccc12
inactive: SNB-75 > 100 µM | BT-549 > 100 µM | SK-MEL-28 > 100 µM | T47D > 100 µM | UO-31 71.6 µM | LOX IMVI 44.1 µM | 786-0 41.5 µM | U-251 21.9 µM | NCI-H226 72.6 µM | K562 47.1 µM | SF-539 > 100 µM | MCF7 80.7 µM | MOLT-4 25.1 µM | SK-MEL-2 > 100 µM | M14 71.6 µM | OVCAR-8 38.2 µM | A549 28 µM | DU-145 > 100 µM | NCI/ADR-RES > 100 µM

COc1cc(/C=N\O)cc(/C=N/O)c1O
inactive: SNB-75 80.7 µM | BT-549 45.2 µM | SK-MEL-28 38.5 µM | T47D 26.4 µM | UO-31 5.94 µM | LOX IMVI 40.9 µM | U-251 37.9 µM | NCI-H226 24.2 µM | K562 71.9 µM | SF-539 24.4 µM | MCF7 60.8 µM | MOLT-4 25.7 µM | SK-MEL-2 25.8 µM | M14 20 µM | OVCAR-8 37.1 µM | A549 > 100 µM | DU-145 > 100 µM | NCI/ADR-RES 58.1 µM

CO[C@@]12C[C@@H](CNC(=O)c3cc(Br)c[nH]3)O[C@@H]1NC(=O)N2
inactive: SNB-75 > 100 µM | BT-549 > 100 µM | SK-MEL-28 > 100 µM | T47D > 100 µM | UO-31 > 100 µM | LOX IMVI > 100 µM | 786-0 > 100 µM | U-251 > 100 µM | NCI-H226 > 100 µM | SF-539 > 100 µM | MCF7 > 100 µM | SK-MEL-2 > 100 µM | M14 > 100 µM | OVCAR-8 > 100 µM | A549 > 100 µM | DU-145 > 100 µM | NCI/ADR-RES > 100 µM

CC(C)=CC1C(COC(=O)c2cc3c(cc2Cl)OCO3)C1(C)C (stereo not drawn)
inactive: BT-549 33 µM | SK-MEL-28 38.8 µM | T47D 39.1 µM | UO-31 54.2 µM | LOX IMVI 22.3 µM | 786-0 37.8 µM | U-251 26.8 µM | NCI-H226 42.4 µM | K562 34.4 µM | MOLT-4 16.1 µM | SK-MEL-2 18.6 µM | M14 38.7 µM | OVCAR-8 34.8 µM | A549 34.2 µM | DU-145 28.4 µM | NCI/ADR-RES 35.6 µM

O=[N+]([O-])/C(C(Cl)=C(Cl)Cl)=C1\Nc2ccc([N+](=O)[O-])cc2N1
inactive: SNB-75 > 100 µM | BT-549 62.2 µM | SK-MEL-28 > 100 µM | T47D > 100 µM | UO-31 14.1 µM | 786-0 > 100 µM | U-251 60 µM | NCI-H226 > 100 µM | K562 > 100 µM | MCF7 > 100 µM | MOLT-4 45.1 µM | SK-MEL-2 > 100 µM | M14 > 100 µM | A549 > 100 µM | DU-145 > 100 µM | NCI/ADR-RES > 100 µM

O=C(O)C1C(=O)Oc2c(cccc2[N+](=O)[O-])C1O (stereo not drawn)
inactive: HCC 2998 > 100 µM | SNB-75 > 100 µM | BT-549 > 100 µM | SK-MEL-28 > 100 µM | T47D > 100 µM | LOX IMVI > 100 µM | 786-0 > 100 µM | U-251 > 100 µM | NCI-H226 > 100 µM | K562 > 100 µM | SF-539 > 100 µM | MOLT-4 > 100 µM | SK-MEL-2 > 100 µM | M14 > 100 µM | OVCAR-8 > 100 µM | A549 > 100 µM | DU-145 > 100 µM | NCI/ADR-RES > 100 µM

N#CC1CNC(N)NC1N (stereo not drawn)
inactive: SNB-75 > 100 µM | BT-549 > 100 µM | SK-MEL-28 > 100 µM | T47D > 100 µM | LOX IMVI > 100 µM | 786-0 > 100 µM | U-251 > 100 µM | NCI-H226 > 100 µM | K562 64.1 µM | SF-539 > 100 µM | MCF7 > 100 µM | SK-MEL-2 > 100 µM | M14 > 100 µM | OVCAR-8 > 100 µM | A549 > 100 µM | DU-145 > 100 µM | NCI/ADR-RES > 100 µM

c1ccc2c(Cc3c[nH]c4ccccc34)c[nH]c2c1 [ARUNDINE]
inactive: SNB-75 17.4 µM | BT-549 18.2 µM | SK-MEL-28 36 µM | T47D 15.8 µM | UO-31 14.1 µM | LOX IMVI 20.3 µM | 786-0 18.5 µM | U-251 17.7 µM | NCI-H226 2.14 µM | K562 19.6 µM | MCF7 > 100 µM | MOLT-4 13.5 µM | SK-MEL-2 22.8 µM | M14 16.6 µM | OVCAR-8 20.5 µM | A549 20.8 µM | DU-145 18.2 µM | NCI/ADR-RES 19.1 µM
